Source: the OligoGym collection
After the bases stand the sugars from the 5' end (letter, count) and the backbone: PS all phosphorothioate, else s phosphorothioate and o phosphodiester by linkage. Methylation of C is not given here. e = 2'-O-(2-methoxyethyl) (MOE); k = constrained ethyl (cEt); d = 2'-deoxy (DNA); m = 2'-O-methyl

Biological target: HSD17B13
Details: ASO, HepaRG

Row | Sequence | target mRNA inhibition (1 µM) | also measured
1 | CTCTGGGACCAAGGAT (sugars kkdddddddddkekek, PS) | 39% | –
2 | GTCACCTTTCATAATG (sugars k3 d1 m1 d8 k3, PS) | 40% | –
3 | CAGGGTGGTAACGGTG (sugars k3 d10 k3, PS) | 55% | –
4 | CCCGAATTATTTCTTG (sugars k3 d10 k3, PS) | 34% | –
5 | GCTACTTGAACAGTCT (sugars kkdddddddddkekek, PS) | 64% | –
6 | GATTGCACAAACCACA (sugars k3 d10 k3, PS) | 73% | –
7 | AAACTTCACCAACGAC (sugars k3 d10 k3, PS) | 27% | –
8 | GAGACAAGAGTTCTTG (sugars k3 d10 k3, PS) | 19% | –
9 | ATGTGAAGAGCTGGTA (sugars k3 d10 k3, PS) | 42% | –
10 | CCCAACGCAACAGTTT (sugars k3 d10 k3, PS) | 66% | target mRNA inhibition (0.02 µM): 4%; target mRNA inhibition (0.078 µM): 26%; target mRNA inhibition (0.313 µM): 54%; target mRNA inhibition (1.25 µM): 78%; target mRNA inhibition (5 µM): 92%
11 | ATTAGTCTTGATGTAG (sugars k3 d10 k3, PS) | 67% | –
12 | TATGAAGTTAGTATAG (sugars k3 d1 m1 d8 k3, PS) | 27% | –
13 | TGGTAAACTGTATGCC (sugars k3 d10 k3, PS) | 76% | target mRNA inhibition (0.02 µM): 0%; target mRNA inhibition (0.078 µM): 3%; target mRNA inhibition (0.313 µM): 40%; target mRNA inhibition (1.25 µM): 72%; target mRNA inhibition (5 µM): 85%
14 | GTTCAAATTGGATGCA (sugars k3 d10 k3, PS) | 68% | –
15 | GCACCGTTTTGGGCTA (sugars kkdddddddddkekek, PS) | 49% | –
16 | TTATACTTTTCCGTCT (sugars k3 d10 k3, PS) | 61% | –
17 | ACCTAATAACTACATG (sugars k3 d10 k3, PS) | 0% | –
18 | TAGTAATCACAAGTAA (sugars kkdddddddddkekek, PS) | 55% | –
19 | TTGGTAAGTATTCCAT (sugars k3 d9 k3 e1, PS) | 28% | –
20 | TGTTATCTCAAGTCAG (sugars k3 d10 k3, PS) | 81% | target mRNA inhibition (0.02 µM): 0%; target mRNA inhibition (0.078 µM): 0%; target mRNA inhibition (0.313 µM): 31%; target mRNA inhibition (1.25 µM): 54%; target mRNA inhibition (5 µM): 81%
21 | TCTCTTAGCTGTGCAC (sugars kkdddddddddkekek, PS) | 36% | –
22 | GCATUAATGCCACCCT (sugars k3 d1 m1 d8 k3, PS) | 32% | –
23 | GAGATTTGAAGGTTAG (sugars k3 d10 k3, PS) | 82% | target mRNA inhibition (0.02 µM): 0%; target mRNA inhibition (0.078 µM): 26%; target mRNA inhibition (0.313 µM): 54%; target mRNA inhibition (1.25 µM): 77%; target mRNA inhibition (5 µM): 92%
24 | ATGTCTTGGTAATCTC (sugars k3 d10 k3, PS) | 23% | –

Row | Sequence | target mRNA inhibition (1 µM) | also measured
25 | TTCCATCTATCAGACT (sugars k3 d10 k3, PS) | 33% | –
26 | TTAGTTAGAATAGTCT (sugars k3 d10 k3, PS) | 8% | –
27 | CTTCATAGTGGACTTC (sugars k3 d9 k3 e1, PS) | 57% | –
28 | TACAGTTCCTTTTCCT (sugars k3 d10 k3, PS) | 68% | –
29 | CAGTUTTCCTCATGAT (sugars k3 d1 m1 d8 k3, PS) | 0% | –
30 | CTTTGCAGCATTGATT (sugars k3 d1 m1 d8 k3, PS) | 19% | –
31 | CAAACATGGATGTTAG (sugars k3 d10 k3, PS) | 49% | –
32 | GTTATAAGTTTCATGT (sugars k3 d10 k3, PS) | 21% | –
33 | GTATCTTAAGAGAAGG (sugars k3 d10 k3, PS) | 30% | –
34 | ATGTGAAGAGCTGGTA (sugars k3 d1 m1 d8 k3, PS) | 26% | –
35 | CTAGGGAAATCTTTCA (sugars k3 d9 k3 e1, PS) | 55% | –
36 | CCTTCATCTAACTAAC (sugars k3 d10 k3, PS) | 30% | –
37 | TGCCTGCCTATTCCAT (sugars k3 d10 k3, PS) | 40% | –
38 | TGAACATACATTGTTG (sugars k3 d10 k3, PS) | 29% | –
39 | GCAGAAATTCACCTTG (sugars k3 d10 k3, PS) | 74% | target mRNA inhibition (0.02 µM): 5%; target mRNA inhibition (0.078 µM): 19%; target mRNA inhibition (0.313 µM): 26%; target mRNA inhibition (1.25 µM): 70%; target mRNA inhibition (5 µM): 88%
40 | TCCCAACCAAACTTCC (sugars k3 d1 m1 d8 k3, PS) | 43% | –
41 | ACAGUAAAATTATGCC (sugars k3 d1 m1 d8 k3, PS) | 24% | –
42 | CGCGAGATGATGTTGC (sugars k3 d10 k3, PS) | 53% | –
43 | AGAGCGATAGATCTCT (sugars k3 d10 k3, PS) | 8% | –
44 | TACCAATATGGGATGA (sugars k3 d10 k3, PS) | 1% | –
45 | GTCGGTCACCTTTCAT (sugars kkdddddddddkekek, PS) | 57% | –
46 | GTGGCATGGCTACAGA (sugars kkdddddddddkekek, PS) | 59% | –
47 | GATTTTTGGTGAACCC (sugars k3 d10 k3, PS) | 30% | –
48 | CAAATTCATAAGTAGT (sugars k3 d10 k3, PS) | 76% | –

Row | Sequence | target mRNA inhibition (1 µM) | also measured
49 | TGAGAAGGCGGTATCA (sugars k3 d10 k3, PS) | 20% | –
50 | GTGTTCTTGTTGATAT (sugars k3 d10 k3, PS) | 81% | target mRNA inhibition (0.02 µM): 13%; target mRNA inhibition (0.078 µM): 25%; target mRNA inhibition (0.313 µM): 59%; target mRNA inhibition (1.25 µM): 80%; target mRNA inhibition (5 µM): 93%
51 | GAAATTGATACACCAA (sugars k3 d9 k3 e1, PS) | 64% | –
52 | AATTAAGATGTCCAGG (sugars k3 d10 k3, PS) | 13% | –
53 | TTCGGCACTCAGCTGC (sugars k3 d10 k3, PS) | 41% | –
54 | TATTGTAGGGATTGAA (sugars k3 d10 k3, PS) | 40% | –
55 | TGTACAAATTTATGCC (sugars k3 d10 k3, PS) | 67% | –
56 | TCCACTTGAATTCTGT (sugars k3 d10 k3, PS) | 32% | –
57 | GATTGGAATGCTACTT (sugars kkdddddddddkekek, PS) | 53% | –
58 | GACAATGACATAGACG (sugars k3 d10 k3, PS) | 0% | –
59 | CCAATATATACTGACA (sugars k3 d10 k3, PS) | 68% | –
60 | ACTTCACCAACGACTC (sugars k3 d10 k3, PS) | 15% | –
61 | CTTGATGTAGTGGGAG (sugars k3 d1 m1 d8 k3, PS) | 67% | –
62 | ACAGATTGGAATGCTA (sugars k3 d9 k3 e1, PS) | 68% | target mRNA inhibition (0.02 µM): 18%; target mRNA inhibition (0.078 µM): 21%; target mRNA inhibition (0.313 µM): 38%; target mRNA inhibition (1.25 µM): 62%; target mRNA inhibition (5 µM): 76%
63 | CTAGATTCTACACTAA (sugars k3 d10 k3, PS) | 17% | –
64 | ATCCTATATACATCCA (sugars kkdddddddddkekek, PS) | 65% | –
65 | CCTAATAACTACATGA (sugars k3 d10 k3, PS) | 3% | –
66 | CAGAATATATACTAGG (sugars k3 d10 k3, PS) | 55% | –
67 | ATGTAATAGCCAGTAC (sugars k3 d9 k3 e1, PS) | 63% | –
68 | GAGGCTAGGGAAATCT (sugars k3 d10 k3, PS) | 56% | –
69 | ATAGTCCATGCAAAAG (sugars k3 d9 k3 e1, PS) | 29% | –
70 | TTAAGATACCCAGGTT (sugars kkdddddddddkekek, PS) | 48% | –
71 | AAATAGAGTCGGTCAC (sugars k3 d10 k3, PS) | 59% | –
72 | TTAGTACCAAGACACT (sugars k3 d10 k3, PS) | 41% | –

Row | Sequence | target mRNA inhibition (1 µM) | also measured
73 | CCAGTAAAAAATTGGT (sugars k3 d10 k3, PS) | 23% | –
74 | ATCCTATATACATCCA (sugars k3 d9 k3 e1, PS) | 75% | target mRNA inhibition (0.02 µM): 0%; target mRNA inhibition (0.078 µM): 7%; target mRNA inhibition (0.313 µM): 39%; target mRNA inhibition (1.25 µM): 55%; target mRNA inhibition (5 µM): 76%
75 | TAACTAACCTGACACA (sugars k3 d10 k3, PS) | 57% | –
76 | TAGAGTTGCACCGTTT (sugars k3 d10 k3, PS) | 58% | –
77 | TATTATGAGGATCTGG (sugars k3 d10 k3, PS) | 44% | –
78 | CGCGCTTATTAATATC (sugars k3 d10 k3, PS) | 6% | –
79 | TCCACTTTTGGTGGAC (sugars k3 d10 k3, PS) | 16% | –
80 | ATATTCCAGGATTTGC (sugars k3 d10 k3, PS) | 26% | –
81 | TGAGATAAAGCTGCCT (sugars k3 d10 k3, PS) | 63% | –
82 | AGCTAACTCAGGCTGT (sugars k3 d10 k3, PS) | 14% | –
83 | GTTCTTAATTACATTC (sugars k3 d10 k3, PS) | 64% | –
84 | TAATACGACTTCCTTC (sugars k3 d10 k3, PS) | 32% | –
85 | CTGGGATAGTGGAGGA (sugars k3 d10 k3, PS) | 21% | –
86 | AAAATGTCCTAGGATG (sugars k3 d10 k3, PS) | 0% | –
87 | TTCCCAACGCAACAGT (sugars k3 d10 k3, PS) | 60% | –
88 | TGAACAGTCTTAAACC (sugars k3 d9 k3 e1, PS) | 61% | –
89 | GGAATGCTACTTGAAC (sugars kkdddddddddkekek, PS) | 49% | –
90 | AATAACTGTTCTCCCC (sugars k3 d10 k3, PS) | 20% | –
91 | ACAGCATCAAGACATT (sugars k3 d10 k3, PS) | 53% | –
92 | AACCTTGAATGAGTGG (sugars k3 d10 k3, PS) | 50% | –
93 | TTACAGCATCAAGACA (sugars k3 d10 k3, PS) | 46% | –
94 | GAGAUAAAGCTGCCTG (sugars k3 d1 m1 d8 k3, PS) | 39% | –
